Reference: article PMC8330795, “In silico identification and experimental validation of cellular uptake by a new cell penetrating peptide P1 derived from MARCKS” (Drug Delivery, 2021)

Tests used:
Mouse erythrocytes = test: Hemolysis assay; format: cell-based; conditions: mouse erythrocytes in PBS, 37 °C, 2 h, absorbance 450 nm; 0.1% Triton X-100 positive control
Experimental: Mouse erythrocytes free of plasma components were separated by centrifugation at 1000 rpm for 5 minutes and washed three times with PBS. The washed mouse erythrocytes were resuspended in PBS and treated with indicated concentrations of peptides at 37 °C for 2 h. Hemolysis was examined by measuring the absorbance of supernatant at the wavelength of 450 nm, and 0.1% Triton X-100 was used as a positive control.

HSC-T6 cells [1] = tested on: HSC-T6 cells
Experimental: Cytotoxicity was measured using MTT assay. Grown cells were inoculated for 24 h at a density of 10000 cells/well in 96-well plates. After washing with PBS, the indicated concentrations of peptides were added, following by further incubation for 24 h or 48 h. After at least two-times washing, 5 mg/ml MTT dissolved in PBS with serum-free media was added into plates for another 4 h incubation. Dimethyl sulfoxide (DMSO) was added into plates and incubated at 37 °C for 15–30 minutes to dissolve the formazan crystals. The absorbance of aliquot from each well was measured at 490 nm using a Multiskan Spectrum (Thermo Fisher Scientific, Waltham, MA, USA) microplate reader. Experiments were repeated three times.

MCF7 = test: Cellular uptake of FITC-labeled peptide, fluorescence microscopy and lysate fluorescence; format: cell-based, human; conditions: FITC-labeled peptide 5 μM; MCF7 compared with other cell lines
Experimental: (§1) Cells were suspended in regular culture media and seeded on coverslip in a 24-well plate at a concentration of 1.6 × 10^4 cells/well. Rinsing with PBS twice after 24 h of incubation for cell attachment, FITC-labeled peptides at indicated concentrations were added with 0.5 ml serum-free media/well and incubated for 1 hour at 37 °C. After incubation, the cells were washed with PBS at least three times. 4′,6-diamidino-2-phenylindole (DAPI) was added to each well and incubated for 5 min after fixation with 4% paraformaldehyde (PFA) in PBS. The cells were washed with PBS, mounted on the slide, and observed by fluorescence microscopy (Nikon, Tokyo, Japan).
(§2) To analyze the internalization efficiency of CPP, the fluorescence of cell lysates and supernatants was measured using TECAN Safire multi-well reader with excitation and emission wavelengths set to 485 nm and 535 nm, following the protocol published (Wang et al., [2010]; Ma et al., [2015]; Wang et al., [2016]; [2016]; Zhou et al., [2017]; Shao et al., [2016]; Zhang et al., [2019]; Geng et al., [2020]). After the cell incubation with peptide and washing step described above, cells were lysed with 300 µl lysis buffer (0.1 M NaOH) for 10 minutes and centrifuged at 800 rpm for 5 minutes. Fluorescence in the 50 µl supernatant transferred to a 96-well plate was monitored by the plate-reader spectrophotometer (Tecan, Mannedorf, Switzerland). […]

HSC-T6 cells [2] = test: as above; format: cell-based, rat
Experimental: Cells were suspended in regular culture media and seeded on coverslip in a 24-well plate at a concentration of 1.6 × 10^4 cells/well. Rinsing with PBS twice after 24 h of incubation for cell attachment, FITC-labeled peptides at indicated concentrations were added with 0.5 ml serum-free media/well and incubated for 1 hour at 37 °C. After incubation, the cells were washed with PBS at least three times. 4′,6-diamidino-2-phenylindole (DAPI) was added to each well and incubated for 5 min after fixation with 4% paraformaldehyde (PFA) in PBS. The cells were washed with PBS, mounted on the slide, and observed by fluorescence microscopy (Nikon, Tokyo, Japan). To analyze the internalization efficiency of CPP, the fluorescence of cell lysates and supernatants was measured using TECAN Safire multi-well reader with excitation and emission wavelengths set to 485 nm and 535 nm, following the protocol published (Wang et al., [2010]; Ma et al., [2015]; Wang et al., [2016]; [2016]; Zhou et al., [2017]; Shao et al., [2016]; Zhang et al., [2019]; Geng et al., [2020]). After the cell incubation with peptide and washing step described above, cells were lysed with 300 µl lysis buffer (0.1 M NaOH) for 10 minutes and centrifuged at 800 rpm for 5 minutes. Fluorescence in the 50 µl supernatant transferred to a 96-well plate was monitored by the plate-reader spectrophotometer (Tecan, Mannedorf, Switzerland). The amount of FITC-labeled peptides internalized were normalized by protein concentration, and the experiments indicated were repeated at least three times.

BV2 cells = test: as above; format: cell-based, mouse; conditions: FITC-labeled peptide 5 μM
Experimental: as §1, §2

BV2 = test: Peptide-mediated transfection of pdsRed plasmid, RFP expression; format: cell-based, mouse; conditions: BV2, 80:1 group
Experimental: HSC-T6, BV2 and MCF7 cells (4 × 10^4 cells/well) were seeded onto 24-well plates 24 h before the experiment. Cells were incubated with CPP-P1/pDNA complexes at indicated N/P ratios for 4 hrs in serum-free media, and then were incubated for 24 h or 48 h after adding media with 10% serum. Live cell imaging under fluorescence microscope was carried out to estimate peptide-based transfection efficiency. Cells transfected with TurboFectin (OriGene, Beijing, China) were used as positive transfection reagent.

KKKKKRFSFKKSFKLSGFSFKKNKK [P1]
hemolysis of red blood cells (Mouse erythrocytes): minimally perturbed
cytotoxicity, MTT assay (HSC-T6 cells [1]): did not find significant cytotoxicity
penetration efficiency in different cell lines (MCF7): higher penetration efficiency in MCF7
penetration efficiency with chloroquine (CQ) (HSC-T6 cells [2]; 100 μM CQ, fluorescent quantification, Figure S6, cell line not stated at place): no obvious effect
fluorescence of peptide versus incubation time (HSC-T6 cells [2]; FITC-labeled peptide 5 μM, after 1 hour treatment, longer incubation times, images and fluorescence quantification): significantly decreased as incubation time increased
penetration property versus peptide concentration (HSC-T6 cells [2]; FITC-labeled peptide, 1 hour, 37 °C, serum-free media, fluorescence normalized with protein concentration): concentration dependent
penetration efficiency with sucrose (HSC-T6 cells [2]; peptide 5 μM with 0.3 M and 0.6 M sucrose, cell line not stated at place): inhibited
penetration efficiency with penetration enhancer DMSO (HSC-T6 cells [2]; peptide 5 μM with 5% DMSO (2.5% and 5% tested), cell line not stated at place): enhanced
penetration efficiency at low temperature (HSC-T6 cells [2]; peptide 5 μM, 25 °C and 4 °C compared to 37 °C): significantly inhibited
uptake inhibited by endocytosis inhibitors (HSC-T6 cells [2]; peptide 5 μM, same inhibitor list, inhibitor giving this value not specified): about 20%
penetration efficiency compared with other published CPPs (HSC-T6 cells [2]; peptides 5 μM, FITC-labeled, versus MT23 and TAT, cell line not stated at place): higher penetration efficiency than MT23 and TAT
penetration into hard-to-translocate cells (BV2 cells): could enter into hard-to-translocate BV2 cells in significant amount
RFP expression at N/P 80:1 (BV2): could not find RFP positive cells
